These results are taken from patent US11560370B1, “5-membered heteroaryl carboxamide compounds for treatment of HBV” (Assembly Biosciences, Inc., priority 2018, dated 2023).

In general, EC50 refers to the concentration at which the effect is half-maximal.

SMILES strings stand for the structures.

For the first assay, the system named is HBV. The experiment in a line: Viral production from HepAD38 cells, viral load by qPCR of HBV core sequence. The conditions noted are these: 5 days, supernatant HBV DNA by qPCR, read-out: Viral Load EC50 Activity range. In kind it is cell-based. The procedure, abridged: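 HepAD38 cells in tetracycline-free medium with 2% FBS, 50,000 cells/well, treated 5 days at 37° C. with compound from 10 μM top concentration (1% DMSO final). Supernatant HBV DNA measured by TaqMan qPCR of core sequence against standards, versus DMSO wells; viability by CellTiter-Glo; EC50/CC50 by four-parameter fit.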
In general terms: Real-time PCR tracks product formation cycle by cycle.
As for `Cn1nc(C2CC3CC(O)(CC(=O)O)CC3C2)c(C(=O)Nc2ccc(F)c(Cl)c2)c1N` (centres unmarked) [AIA-241], the half-maximal effective concentration (EC50) was less than 0.1 µM.
As to `Cn1nc(C2CC3CC(O)(COC(F)F)CC3C2)c(C(=O)Nc2ccc(F)c(Cl)c2)c1N` (centres unmarked) [AIA-253-1], the EC50 is less than 0.1 µM.
In the case of `CCC1OC[C@]2(CC3C[C@H](c4nn(C)c(N)c4C(=O)Nc4ccc(F)c(Cl)c4)C[C@@H]3C2)O1` (some centres unmarked) [AIA-255-5], the half-maximal effective concentration (EC50) is less than 0.1 µM.
As for `CC(C)C1(O)CC2C[C@@H](c3nn(C)c(N)c3C(=O)Nc3ccc(F)c(Cl)c3)C[C@H]2C1O` (some centres unmarked) [AIA-257-1], the 50% effective concentration (EC50) was less than 0.1 µM.
Regarding `Cn1nc(C2CC3CC(O)(C(C)(C)O)CC3C2)c(C(=O)Nc2ccc(F)c(Cl)c2)c1N` (centres unmarked) [AIA-257], the EC50 was less than 0.1 µM.
Same read-out and setting: for `Cn1nc(C2CCN(c3ccccc3)C2)c(C(=O)Nc2ccc(F)c(Cl)c2)c1N` (centres unmarked) [AIA-262] the value was 0.1 to 0.5 µM.
For `Cn1nc(C2CC3CC(O)(C(=O)NC4CC4)CC3C2)c(C(=O)Nc2ccc(F)c(Cl)c2)c1N` (centres unmarked) [AIA-274-2, 5-Amino-N-(3-chloro-4-fluorophenyl)-3-(5-(cyclopropylcarbamoyl)-5-hydroxyoctahydropentalen-2-yl)-1-methyl-1H-pyrazole-4-carboxamide], the EC50 was less than 0.1 µM.
In the case of `Cn1nc(C2CC3COC(=O)CC3C2)c(C(=O)Nc2ccc(F)c(Cl)c2)c1N` (centres unmarked) [AIA-275], the EC50 is less than 0.1 µM.
Still for that read-out and setting: with `COc1cccc([C@H]2CC[C@H](c3nn(C)c(N)c3C(=O)Nc3ccc(F)c(Cl)c3)C2)c1` [AIA-276C] the figure was less than 0.1 µM.
The same measure, in the same setting: for `COc1cccc(C2CCC(c3nn(C)c(N)c3C(=O)Nc3ccc(F)c(Cl)c3)C2)c1` (centres unmarked) [AIA-276] the value was less than 0.1 µM; for `Cn1nc(C2CC3CC(O)(CSCCO)CC3C2)c(C(=O)Nc2ccc(F)c(Cl)c2)c1N` (centres unmarked) [AIA-283], less than 0.1 µM; for `Cn1nc(C2CC3CC(O)(CSCCN4CCOCC4)CC3C2)c(C(=O)Nc2ccc(F)c(Cl)c2)c1N` (centres unmarked) [AIA-284], less than 0.1 µM.
With `COC1CC2CC(c3nn(C)c(N)c3C(=O)Nc3ccc(F)c(Cl)c3)CC2C1` (centres unmarked) [AIA-285], the 50% effective concentration (EC50) was less than 0.1 µM.
On the same count and under the same terms, for `CC(=O)NC1CC2CC(c3nn(C)c(N)c3C(=O)Nc3ccc(F)c(Cl)c3)CC2C1` (centres unmarked) [AIA-288] the value was less than 0.1 µM; for `Cn1nc(C2CC3CC4(CC3C2)OCCO4)c(C(=O)Nc2ccc(F)c(Cl)c2)c1N` (centres unmarked) [AIA-290], less than 0.1 µM.
`CS(=O)(=O)CC1(O)CC2CC(c3n[nH]c(N)c3C(=O)Nc3ccc(F)c(Cl)c3)CC2C1` (centres unmarked) [AIA-310]: the EC50 was less than 0.1 µM.

Still in this assay, the particulars now being: Hepatitis B virus, HePAD38, 120 h, 5 days, supernatant HBV DNA by qPCR, read-out: Viral Load EC50 Activity range.
Turning to `Cn1nc(C2CC3CC(N4CCNC(=O)C4)CC3C2)c(C(=O)Nc2ccc(F)c(C#N)c2)c1N` (stereo not drawn) [AIA-246, 5-Amino-N-(3-cyano-4-fluorophenyl)-1-methyl-3-(5-(3-oxopiperazin-l-yl)octahydropentalen-2-yl)-1H-pyrazole-4-carboxamide], the EC50 was less than 0.1 µM.
On the same count and under the same terms, with `Cn1nc(C2CC3CC(O)(CS(=O)(=O)C4CC4)CC3C2)c(C(=O)Nc2ccc(F)c(Cl)c2)c1N` (centres unmarked) [AIA-252-1, 5-Amino-N-(3-chloro-4-fluorophenyl)-3-(5-((cyclopropylsulfonyl)methyl)-5-hydroxyortahydropentalen-2-yl)-1-methyl-1H-pyrazole-4-carboxamide] the figure was less than 0.1 µM.
For the compound `Cn1nc(C2CC3CC(O)(COCC(F)(F)F)CC3C2)c(C(=O)Nc2ccc(F)c(Cl)c2)c1N` (centres unmarked) [AIA-254, 5-Amino-N-(3-chloro-4-fluorophenyl)-3-((2s,5s)-5-hydroxy-5-((2,2,2-trifluoroethoxy)methyl)octahydropentalen-2-yl)-1-methyl-1H-pyrazole-4-carboxamide], the EC50 is less than 0.1 µM.
Same read-out and setting: with `Cn1nc(C2CC3CC(O)(CSCC(F)(F)F)CC3C2)c(C(=O)Nc2ccc(F)c(Cl)c2)c1N` (centres unmarked) [AIA-258-1, 5-Amino-N-(3-chloro-4-fluorophenyl)-3-(5-hydroxy-5-(((2,2,2-trifluoroethyl)thio)methyl)octahydropentalen-2-yl)-1-methyl-1H-pyrazole-4-carboxamide] the figure was less than 0.1 µM.
Take `Cn1nc(C2CC3CC(O)(C[S+]([O-])CC(F)(F)F)CC3C2)c(C(=O)Nc2ccc(F)c(Cl)c2)c1N` (centres unmarked) [AIA-259-A, 5-Amino-N-(3-chloro-4-fluorophenyl)-3-((2r,5r)-5-hydroxy-5-((2,2,2-trifluoroethylsulfinyl)methyl)octahydropentalen-2-yl)-1-methyl-1H-pyrazole-4-carboxamide]: the EC50 is less than 0.1 µM.
Turning to `Cn1nc(C2CC3CC(O)(CSC(C)(C)C)CC3C2)c(C(=O)Nc2ccc(F)c(Cl)c2)c1N` (centres unmarked) [AIA-262-1, 5-Amino-3-(5-((tert-butylthio)methyl)-5-hydroxyoctahydropentalen-2-yl)-N-(3-chloro-4-fluorophenyl)-1-methyl-1H-pyrazole-4-carboxamide], the 50% effective concentration (EC50) was less than 0.1 µM.
Take `CN(C)S(=O)(=O)CC1(O)CC2CC(c3nn(C)c(N)c3C(=O)Nc3ccc(F)c(Cl)c3)CC2C1` (centres unmarked) [AIA-265, 5-Amino-N-(3-chloro-4-fluorophenyl)-3-(5-((N,N-dimethylsulfamoyl)methyl)-5-hydroxyoctahydropentalen-2-yl)-1-methyl-1H-pyrazole-4-carboxamide]: the EC50 was less than 0.1 µM.
For the compound `CN(C)C(=O)CC1(O)CC2CC(c3nn(C)c(N)c3C(=O)Nc3ccc(F)c(Cl)c3)CC2C1` (centres unmarked) [AIA-270, 5-Amino-N-(3-chloro-4-fluorophenyl)-3-(5-(2-(dimethylamino)-2-oxoethyl)-5-hydroxyoctahydropentalen-2-yl)-1-methyl-1H-pyrazole-4-carboxamide], the EC50 is less than 0.1 µM.
Turning to `Cn1nc(C2CCC(c3ccccc3Cl)C2)c(C(=O)Nc2ccc(F)c(Cl)c2)c1N` (centres unmarked) [AIA-272, 5-Amino-N-(3-chloro-4-fluorophenyl)-3-(3-(2-chlorophenyl)cyclopentyl)-1-methyl-1H-pyrazole-4-carboxamide], the EC50 was less than 0.1 µM.
Same read-out and setting: for `Cn1nc(C2CCC(c3ccc(Cl)cc3)C2)c(C(=O)Nc2ccc(F)c(Cl)c2)c1N` (centres unmarked) [AIA-274, 5-Amino-N-(3-chloro-4-fluorophenyl)-3-(3-(4-chlorophenyl)cyclopentyl)-1-methyl-1H-pyrazole-4-carboxamide] the value was 0.1 to 0.5 µM; for `Cn1nc(C2CC3CC(O)(C(=O)NC4CC4)CC3C2)c(C(=O)Nc2ccc(F)c(Cl)c2)c1N` (centres unmarked) [AIA-274-1, 5-Amino-N-(3-chloro-4-fluorophenyl)-3-(5-(cyclopropylcarbamoyl)-5-hydroxyoctahydropentalen-2-yl)-1-methyl-1H-pyrazole-4-carboxamide], less than 0.1 µM; for `Cn1nc(C2CCC(c3ccccc3)C2)c(C(=O)Nc2cc(F)c(F)c(Br)c2)c1N` (centres unmarked) [AIA-278, 5-Amino-N-(3-bromo-4,5-difluorophenyl)-1-methyl-3-(3-phenylcyclopentyl)-1H-pyrazole-4-carboxamide], 0.1 to 0.5 µM.
On the same count and under the same terms, for `Cn1nc(C2CCC(c3ccccc3)C2)c(C(=O)Nc2ccc(F)c(C#N)c2)c1N` (centres unmarked) [AIA-279, 5-Amino-N-(3-cyano-4-fluorophenyl)-1-methyl-3-(3-phenylcyclopentyl)-1H-pyrazole-4-carboxamide] the value was less than 0.1 µM; for `Cn1cnc(C2CCC(c3nn(C)c(N)c3C(=O)Nc3ccc(F)c(Cl)c3)C2)c1` (centres unmarked) [AIA-280, 5-Amino-N-(3-chloro-4-fluoro-phenyl)-1-methyl-3-[3-(1-methylimidazol-4-yl)cyclopentyl]pyrazole-4-carboxamide], 0.1 to 0.5 µM; for `Cn1nc(C2CCC(c3ccc(F)cc3)C2)c(C(=O)Nc2ccc(F)c(Cl)c2)c1N` (centres unmarked) [AIA-281, 5-Amino-N-(3-chloro-4-fluorophenyl)-3-(3-(4-fluorophenyl)cyclopentyl)-1-methyl-1H-pyrazole-4-carboxamide], less than 0.1 µM.
The same measure, in the same setting: with `Cn1nc(C2CCC(c3ccc(OC(F)(F)F)cc3)C2)c(C(=O)Nc2ccc(F)c(Cl)c2)c1N` (centres unmarked) [AIA-292, 5-Amino-N-(3-chloro-4-fluorophenyl)-1-methyl-3-(3-(4-(trifluoromethoxy)phenyl)cyclopentyl)-1H-pyrazole-4-carboxamide] the figure was 0.5 to 10 µM.
With `CN(C)c1ccc(C2CCC(c3nn(C)c(N)c3C(=O)Nc3ccc(F)c(Cl)c3)C2)cc1` (centres unmarked) [AIA-293, 5-Amino-N-(3-chloro-4-fluorophenyl)-3-(3-(4-(dimethylamino)phenyl)cyclopentyl)-1-methyl-1H-pyrazole-4-carboxamide], the half-maximal effective concentration (EC50) is less than 0.1 µM.
Still for that read-out and setting: with `CC(=O)Nc1ccc(C2CCC(c3nn(C)c(N)c3C(=O)Nc3ccc(F)c(Cl)c3)C2)cc1` (centres unmarked) [AIA-294, 3-(3-(4-Acetamidophenyl)cyclopentyl)-5-amino-N-(3-chloro-4-fluorophenyl)-1-methyl-1H-pyrazole-4-carboxamide] the figure was less than 0.1 µM; with `CC(C)Oc1ccc(C2CCC(c3nn(C)c(N)c3C(=O)Nc3ccc(F)c(Cl)c3)C2)cc1` (centres unmarked) [AIA-296, 5-Amino-N-(3-chloro-4-fluorophenyl)-3-(3-(4-isopropoxyphenyl)cyclopentyl)-1-methyl-1H-pyrazole-4-carboxamide], less than 0.1 µM.
With `COCCOc1ccc(C2CCC(c3nn(C)c(N)c3C(=O)Nc3ccc(F)c(Cl)c3)C2)cc1` (centres unmarked) [AIA-297, 5-Amino-N-(3-chloro-4-fluorophenyl)-3-(3-(4-(2-methoxyethoxy)phenyl)cyclopentyl)-1-methyl-1H-pyrazole-4-carboxamide], the EC50 is less than 0.1 µM.
The same measure, in the same setting: for `Cn1nc(C2CC3CC(O)(CS(=O)(=O)CCCN4CCNC(=O)C4)CC3C2)c(C(=O)Nc2ccc(F)c(Cl)c2)c1N` (centres unmarked) [AIA-350, 5-Amino-N-(3-chloro-4-fluorophenyl)-3-(5-hydroxy-5-(((3-(3-oxopiperazin-1-yl)propyl)sulfonyl)methyl)octahydropentalen-2-yl)-1-methyl-1H-pyrazole-4-carboxamide] the value was 0.5 to 10 µM; for `Cn1nc([C@@H]2CC[C@@H](c3cnc(C(F)(F)F)s3)C2)c(C(=O)Nc2ccc(F)c(Cl)c2)c1N` [AIA-354, 5-Amino-N-(3-chloro-4-fluorophenyl)-1-methyl-3-((1R,3R)-3-(2-(trifluoromethyl)thiazol-5-yl)cyclopentyl)-1H-pyrazole-4-carboxamide], 0.5 to 10 µM.
